Reference: ChEMBL document CHEMBL3580649, “Cardamonin induces autophagy and an antiproliferative effect through JNK activation in human colorectal carcinoma HCT116 cells” (2015)
The source made the active and inactive calls. The calls are words filed in the database; no cut-off is given here.

Experiments:
HCT-116 [1] = assay: Induction of autophagy in human HCT116 cells assessed as increase in LC3-II accumulation at 10 uM upto 20 hrs by immunoblot analysis; assay type: functional, cell-based
HCT-116 [2] = assay: Antiproliferative activity against human HCT116 cells at 10 uM upto 20 hrs by CCK8 assay relative to control in presence of 20 uM SP600125 reversible JNK inhibitor; assay type: functional, cell-based
HCT-116 [3] = assay: Induction of autophagy in human HCT116 cells assessed as increase in LC3-II accumulation at 10 uM upto 20 hrs by Confocal imaging analysis; assay type: functional, cell-based
HCT-116 [4] = assay: Induction of autophagy in human HCT116 cells assessed as LC3-II accumulation at 10 uM upto 20 hrs by Western blotting analysis in presence of 20 uM SP600125 reversible JNK inhibitor; assay type: functional, cell-based
HCT-116 [5] = assay: Induction of autophagy in human HCT116 cells assessed as increase in LC3-II dots per cell at 10 uM upto 20 hrs by Confocal imaging analysis relative to vehicle treated control (reference value: 0.8/cell); assay type: functional
HCT-116 [6] = assay: Antiproliferative activity against human HCT116 cells transfected with shRNA against p53 at 10 uM after 24 hrs by CCK8 assay in presence of exogenous p53 gene; assay type: functional, cell-based
HCT-116 [7] = assay: Antiproliferative activity against human HCT116 cells transfected with shRNA against p53 at 10 uM after 24 hrs by CCK8 assay relative to control; assay type: functional, cell-based
HCT-116 [8] = assay: Antiproliferative activity against human HCT116 cells assessed as cell viability at 10 uM after 24 hrs by WST8 assay relative to vehicle treated control; assay type: functional; details: HCT-116, 24 h
HCT-116 [9] = assay: Induction of autophagy in human HCT116 cells transfected with shRNA against p53 assessed as LC3-II accumulation at 10 uM after 24 hrs by Western blotting analysis; assay type: functional, cell-based
HCT-116 [10] = assay: Induction of cell cycle arrest in human HCT116 cells assessed as cells accumulation at G2/M phase at 10 uM after 24 hrs by propidium iodide staining-based flow cytometry (reference value: 19.2 +/- 0.3%); assay type: functional
[11] = target: Mitogen-activated protein kinase 9 (Homo sapiens) (UniProt P45984); assay: Activation of JNK2 in human HCT116 cells transfected with shRNA against p53 assessed as phosphorylation at 10 uM after 24 hrs by Western blotting analysis; assay type: cell-based; details: HCT-116
Sequence of Mitogen-activated protein kinase 9 (Homo sapiens) (P45984 whole entry, looked up): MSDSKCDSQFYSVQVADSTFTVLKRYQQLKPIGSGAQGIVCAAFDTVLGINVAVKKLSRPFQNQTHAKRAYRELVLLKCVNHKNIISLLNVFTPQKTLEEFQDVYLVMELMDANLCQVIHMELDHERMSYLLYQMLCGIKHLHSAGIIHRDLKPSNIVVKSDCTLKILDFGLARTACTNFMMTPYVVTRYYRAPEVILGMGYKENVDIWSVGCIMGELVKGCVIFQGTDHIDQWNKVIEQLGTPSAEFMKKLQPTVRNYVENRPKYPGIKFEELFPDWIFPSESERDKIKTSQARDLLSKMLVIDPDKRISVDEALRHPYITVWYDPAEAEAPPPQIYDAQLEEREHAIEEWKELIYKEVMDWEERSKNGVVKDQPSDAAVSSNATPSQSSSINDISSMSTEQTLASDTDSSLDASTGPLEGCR

HCT-116 [12] = assay: Induction of cell cycle arrest in human HCT116 cells assessed as cells accumulation at S phase at 10 uM after 24 hrs by propidium iodide staining-based flow cytometry (reference value: 48.8 +/- 1.5%); assay type: functional
[13] = target: Mitogen-activated protein kinase 8 (Homo sapiens) (UniProt P45983); assay: Activation of JNK1 in human HCT116 cells assessed as phosphorylation at 10 uM after 24 hrs by Western blotting analysis; assay type: cell-based; details: HCT-116
Sequence of Mitogen-activated protein kinase 8 (Homo sapiens) (P45983 whole entry): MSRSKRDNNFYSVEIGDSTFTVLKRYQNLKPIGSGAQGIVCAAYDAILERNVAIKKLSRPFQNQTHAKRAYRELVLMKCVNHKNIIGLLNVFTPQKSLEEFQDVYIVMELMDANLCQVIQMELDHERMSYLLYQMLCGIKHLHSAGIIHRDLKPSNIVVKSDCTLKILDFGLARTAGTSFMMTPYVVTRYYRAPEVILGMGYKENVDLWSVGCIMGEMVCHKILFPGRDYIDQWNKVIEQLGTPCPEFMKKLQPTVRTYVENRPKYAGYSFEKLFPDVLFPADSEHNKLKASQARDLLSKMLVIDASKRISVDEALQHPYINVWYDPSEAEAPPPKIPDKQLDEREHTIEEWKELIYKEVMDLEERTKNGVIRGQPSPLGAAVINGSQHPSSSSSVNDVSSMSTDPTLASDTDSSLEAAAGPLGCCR

HCT-116 [14] = assay: Induction of autophagy in human HCT116 cells assessed as LC3-II accumulation at 10 uM upto 20 hrs by Western blotting analysis in presence of 30 uM PFT-alpha p53 antagonist; assay type: functional, cell-based
[15] = target: Mitogen-activated protein kinase 8 (Homo sapiens) (UniProt P45983); assay: Activation of JNK1 in human HCT116 cells assessed as phosphorylation at 10 uM after 24 hrs by Western blotting analysis in presence of 30 uM PFT-alpha p53 antagonist; assay type: cell-based; details: HCT-116
[16] = target: Mitogen-activated protein kinase 9 (Homo sapiens) (UniProt P45984); assay: Activation of JNK2 in human HCT116 cells assessed as phosphorylation at 10 uM after 24 hrs by Western blotting analysis in presence of 30 uM PFT-alpha p53 antagonist; assay type: cell-based; details: HCT-116
HCT-116 [17] = assay: Induction of cell cycle arrest in human HCT116 cells assessed as cells accumulation at G0/G1 phase at 10 uM after 24 hrs by propidium iodide staining-based flow cytometry (reference value: 31.9 +/- 2.3%); assay type: functional
HCT-116 [18] = assay: Antiproliferative activity against human HCT116 cells assessed as cell viability after 24 hrs by WST8 assay; assay type: functional, cell-based
HCT-116 [19] = assay: Induction of autophagy in human HCT116 cells assessed as autophagic vacuoles at 10 uM after 24 hrs by monodansylcadaverine staining assay; assay type: functional, cell-based
[20] = target: Mitogen-activated protein kinase 8 (Homo sapiens) (UniProt P45983); assay: Activation of JNK1 in human HCT116 cells transfected with shRNA against p53 assessed as phosphorylation at 10 uM after 24 hrs by Western blotting analysis; assay type: cell-based; details: HCT-116
HCT-116 [21] = assay: Induction of autophagy in human HCT116 cells assessed as autophagic vacuoles at 10 uM after 24 hrs by monodansylcadaverine staining assay in presence of Bafilomycin A1; assay type: functional, cell-based
[22] = target: Mitogen-activated protein kinase 9 (Homo sapiens) (UniProt P45984); assay: Activation of JNK2 in human HCT116 cells assessed as phosphorylation at 10 uM after 24 hrs by Western blotting analysis; assay type: cell-based; details: HCT-116

`COc1cc(O)cc(O)c1C(=O)/C=C/c1ccccc1` [CARDAMOMIN] was tested, and the Activity (HCT-116 [1]) was “Active”, the Activity (HCT-116 [2]) was “inactive” and the Activity (HCT-116 [3]) was “Active”. For the same compound, the Activity (HCT-116 [4]) was “inactive”, the Activity (HCT-116 [5]) was 3.4 and the inhibition (HCT-116 [6]) was “Active”. For the same compound, the inhibition (HCT-116 [7]) was “inactive”, the inhibition at 10 µM (HCT-116 [8]) was 37% and the Activity (HCT-116 [9]) was “inactive”. For the same compound, the Activity (HCT-116 [10]) was 25%, the Activity [11] was “inactive” and the Activity (HCT-116 [12]) was 46.6%. For the same compound, the Activity [13] was “Active”, the Activity (HCT-116 [14]) was “inactive” and the Activity [15] was “inactive”. For the same compound, the Activity [16] was “inactive”, the Activity (HCT-116 [17]) was 28.4% and the inhibition (HCT-116 [18]) was “Dose-dependent effect”. The Activity (HCT-116 [19]) was “Active”, the Activity [20] was “inactive” and the Activity (HCT-116 [21]) was “inactive”. The Activity [22] was “Active”.
